Four molecules from article doi:10.1101/2020.11.24.395954v2 (biorxiv, 2021) can be followed below.

As usually defined, the Km is the concentration of substrate that gives half-maximal velocity. One may read the kcat as the maximal rate divided by the concentration of active sites.

The target of one data set is T1, PpKAI2L-E (Physcomitrium patens, UniProt A9ST85).
T1 sequence (A9ST85 1-270): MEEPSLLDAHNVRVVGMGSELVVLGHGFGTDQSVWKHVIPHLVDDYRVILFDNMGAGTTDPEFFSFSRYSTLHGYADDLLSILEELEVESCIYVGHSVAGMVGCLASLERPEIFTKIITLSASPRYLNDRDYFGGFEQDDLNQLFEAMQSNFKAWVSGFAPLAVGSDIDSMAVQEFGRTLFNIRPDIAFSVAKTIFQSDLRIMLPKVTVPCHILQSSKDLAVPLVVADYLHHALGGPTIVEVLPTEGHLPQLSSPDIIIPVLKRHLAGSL
The conditions noted are these: apparent Kd.

The target of a further data set is T2, AtKAI2 (Arabidopsis thaliana, UniProt Q9SZU7).
T2 sequence (Q9SZU7 1-270): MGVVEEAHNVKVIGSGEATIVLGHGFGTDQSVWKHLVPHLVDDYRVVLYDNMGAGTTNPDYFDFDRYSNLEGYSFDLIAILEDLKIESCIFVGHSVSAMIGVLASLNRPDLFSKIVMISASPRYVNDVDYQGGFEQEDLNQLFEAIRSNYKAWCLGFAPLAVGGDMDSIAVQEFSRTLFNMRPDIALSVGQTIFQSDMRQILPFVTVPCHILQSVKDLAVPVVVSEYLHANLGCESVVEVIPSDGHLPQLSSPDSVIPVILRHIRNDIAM
Nature of the data set: biochemical.

Another data set deals with AtD14 (Arabidopsis thaliana, UniProt Q9SQR3). The experiment in a line: biochemical.
Another data set addresses T3, PpKAI2L-K (Physcomitrium patens, UniProt A9S299).
T3 sequence (A9S299 1-270): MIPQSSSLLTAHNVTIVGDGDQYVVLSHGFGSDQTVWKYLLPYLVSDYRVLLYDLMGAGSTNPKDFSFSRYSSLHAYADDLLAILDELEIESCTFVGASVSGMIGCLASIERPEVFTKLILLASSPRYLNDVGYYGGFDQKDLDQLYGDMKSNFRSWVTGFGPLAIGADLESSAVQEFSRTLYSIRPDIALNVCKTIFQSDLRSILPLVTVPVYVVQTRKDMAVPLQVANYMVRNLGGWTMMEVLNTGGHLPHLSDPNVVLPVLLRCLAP
Particulars: apparent Kd.

A further data set has as its target T4, PpKAI2L-D (Physcomitrium patens, UniProt A9SSF6).
T4 sequence (A9SSF6 1-271): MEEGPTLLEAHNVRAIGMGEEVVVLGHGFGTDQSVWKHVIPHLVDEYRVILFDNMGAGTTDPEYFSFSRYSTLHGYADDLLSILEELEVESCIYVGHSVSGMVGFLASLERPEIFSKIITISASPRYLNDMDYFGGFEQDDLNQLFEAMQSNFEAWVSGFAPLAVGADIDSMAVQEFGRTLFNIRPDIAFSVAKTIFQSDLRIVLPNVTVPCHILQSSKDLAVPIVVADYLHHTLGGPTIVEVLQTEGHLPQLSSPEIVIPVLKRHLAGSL
Particulars: apparent Kd.

Substrate in the data set “purified protein”: CC(=O)Oc1ccc([N+](=O)[O-])cc1
Nature of the data set: purified protein.

AtD14, sequence (Q9SQR3 whole entry): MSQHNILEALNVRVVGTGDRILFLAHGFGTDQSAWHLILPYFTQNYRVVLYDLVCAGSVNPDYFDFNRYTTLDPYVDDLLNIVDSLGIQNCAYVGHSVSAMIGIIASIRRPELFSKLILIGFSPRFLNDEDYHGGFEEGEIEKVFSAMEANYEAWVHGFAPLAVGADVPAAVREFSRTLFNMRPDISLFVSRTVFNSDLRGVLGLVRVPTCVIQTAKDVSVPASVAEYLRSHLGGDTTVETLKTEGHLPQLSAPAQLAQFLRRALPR

As for `CC1=C[C@@H](O/C=C2/C(=O)O[C@H]3c4ccccc4C[C@@H]23)OC1=O` [(-)-GR24], the Kd on PpKAI2L-E was 39 µM; on AtKAI2, 45 µM; at AtD14, 94 µM; on PpKAI2L-K, 41 µM; on PpKAI2L-D, 92 µM.

For `CC1=C[C@H](O/C=C2/C(=O)O[C@@H]3c4ccccc4C[C@H]23)OC1=O` [(+)-GR24], the Kd at AtD14 was found to be 22.8 ± 9.27 µM; on PpKAI2L-K, 107 µM.

B1: PpKAI2L-H (Physcomitrium patens) (protein)
chain: MPSPLLSTHNVTVLGNRSDPVVVLGHGLGTDQSVWKYTVPSLVNQNFQVVLYDTMGAGSTETSDFNFKRYSSLQGHVDDLLAILDELEIENCVYVGHSMSGMIGVLASLERPDLFRKLILLSASPRYLNDSSYYGGFEQEDLDQLFSSMRSNFSAWVSGFATAAVGTDIHDEAVQEFSSTFISMRPDVALRTSQFVFQSDFRSILSEVTVPCHIVQSRKDIAVPIEVAEYLRCNLGGWTSVDILQTDGHLPQLSCPELVVPVLLHCIDS
In the case of B1, in “purified protein”, the Km came to 2381 ± 644 µM and the kcat was 34.02 ± 5.83 s⁻¹.

B2: AtKAI2 (Arabidopsis thaliana) (protein)
chain: T2 sequence (Q9SZU7 1-270)
On to B2, for which, in “purified protein”, the Km was 610.1 ± 36.69 µM and the kcat came out at 2.647 ± 0.06558 s⁻¹.
